Data on 25 molecules can be found in patent US20240343704A1, “HALO-SUBSTITUTED AMINO PYRIDINE COMPOUNDS AS INHIBITORS OF THE HAEMATOPOIETIC PROGENITOR KINASE 1 (HPK1)” (priority 2021, published 2024).

Read-outs that look alike come from different tables or passages of the source. Bounds are passed on as bounds.

In one assay the target is Lck (h) (Homo sapiens, UniProt P06239). In words: Lck Human  Kinase Enzymatic Radiometric Assay. Type of assay: biochemical. In outline: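 Substrate 33P-incorporation measured by scintillation counting after spotting on P30 filtermat and phosphoric acid washes. Human Lck reacted 40 min at RT in 50 mM Tris pH 7.5 with 10 mM MgAcetate, [gamma-33P]-ATP, 250 uM Cdc2 peptide, 0.1 mM EGTA and 0.1 mM Na3VO4.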
Sequence of Lck (h) (P06239 whole entry): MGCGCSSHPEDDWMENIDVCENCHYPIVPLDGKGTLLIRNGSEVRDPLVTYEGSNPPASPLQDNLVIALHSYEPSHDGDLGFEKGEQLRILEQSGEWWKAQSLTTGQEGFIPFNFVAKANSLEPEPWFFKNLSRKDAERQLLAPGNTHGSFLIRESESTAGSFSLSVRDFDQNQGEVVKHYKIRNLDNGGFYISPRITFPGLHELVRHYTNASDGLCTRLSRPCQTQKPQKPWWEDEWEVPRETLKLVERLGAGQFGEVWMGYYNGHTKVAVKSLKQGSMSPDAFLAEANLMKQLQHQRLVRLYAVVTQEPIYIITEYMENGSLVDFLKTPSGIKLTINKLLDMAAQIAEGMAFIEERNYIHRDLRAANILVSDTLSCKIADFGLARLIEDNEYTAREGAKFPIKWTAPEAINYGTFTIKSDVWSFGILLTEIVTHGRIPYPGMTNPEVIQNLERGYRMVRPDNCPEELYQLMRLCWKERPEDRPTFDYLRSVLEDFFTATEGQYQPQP

In assay [1] the target is T1, Recombinant (1-346) HPK1 (h) (Homo sapiens, UniProt Q92918).
T1 construct: Recombinant (1-346) HPK1 (h) is incubated with 8 mM MOPS pH 7.0
T1 sequence (Q92918 1-346): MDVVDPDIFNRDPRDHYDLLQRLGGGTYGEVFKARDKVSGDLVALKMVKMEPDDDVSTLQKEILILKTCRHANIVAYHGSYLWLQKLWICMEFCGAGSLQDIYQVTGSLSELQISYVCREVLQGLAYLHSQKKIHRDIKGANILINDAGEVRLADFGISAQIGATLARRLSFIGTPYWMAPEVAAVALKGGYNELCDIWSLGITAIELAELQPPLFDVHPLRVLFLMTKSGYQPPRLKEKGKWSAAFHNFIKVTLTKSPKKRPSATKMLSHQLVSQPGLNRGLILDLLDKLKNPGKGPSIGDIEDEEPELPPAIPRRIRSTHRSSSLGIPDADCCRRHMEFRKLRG
In words: HPK1 Human STE Kinase Enzymatic Radiometric Assay. Type of assay: biochemical. As for the experimental part:
A stock solution of 10 mM of test compound is prepared in DMSO. The compound plate was prepared by 3-fold and 9-point serial dilutions. […] The reaction is initiated by The addition of the Mg/ATP mix. After incubation for 40 minutes at RT, the reaction is stopped by the addition of phosphoric acid to a concentration of 0.5%.

By IC50 is commonly meant the concentration that gives 50% inhibition.

Regarding `CNCC1Cc2cc(-c3cc(-c4ccc(Cl)cc4)c(F)nc3N)ccc2C(=O)N1` (centres unmarked) [I-298, 6-(2-amino-5-(4-chlorophenyl)-6-fluoropyridin-3-yl)-3-((methylamino)methyl)-3,4-dihydroisoquinolin-1(2H)-one], the IC50 at Lck (h) (read-out: Lck IC50 nM Range*) was more than 1000 nM; in assay [1] (read-out: HPK1 IC50 nM Range*), 11 to 100 nM.

For the molecule `CC(C)N1CCN(c2ccc(-c3cc(-c4cc5nc[nH]c(=O)c5cc4F)c(N)nc3F)cc2)CC1` [I-406, 7-(2-amino-6-fluoro-5-(4-(4-isopropylpiperazin-1-yl)phenyl)pyridin-3-yl)-6-fluoroquinazolin-4(3H)-one], the 50% inhibitory concentration (IC50) at Lck (h) (read-out: Lck IC50 nM Range*) was more than 1000 nM; in assay [1] (read-out: HPK1 IC50 nM Range*) it was 0.1 to 10 nM.

For `Nc1nc(F)c(-c2ccc(N3CCN(CCC4CC4)CC3)cc2)cc1-c1cc(F)c2c(c1)CCNC2=O` [I-384, 6-(2-amino-5-(4-(4-(2-cyclopropylethyl)piperazin-1-yl)phenyl)-6-fluoropyridin-3-yl)-8-fluoro-3,4-dihydroisoquinolin-1(2H)-one], the figures for the concentration for half-maximal inhibition (IC50) (at Lck (h) (read-out: Lck IC50 nM Range*); in assay [1] (read-out: HPK1 IC50 nM Range*)) were 101 to 1000 nM and 0.1 to 10 nM, respectively.

For `CO[C@@H](C)CN1CCN(c2ccc(-c3cc(-c4ccc5c(c4)CCNC5=O)c(N)nc3F)cc2)CC1` [I-24, (S)-6-(2-amino-6-fluoro-5-(4-(4-(2-methoxypropyl)piperazin-1-yl)phenyl)pyridin-3-yl)-3,4-dihydroisoquinolin-1(2H)-one], the 50% inhibitory concentration (IC50) at Lck (h) (read-out: Lck IC50 nM Range*) was more than 1000 nM; in assay [1] (read-out: HPK1 IC50 nM Range*) it was 0.1 to 10 nM.

With `C[C@@H](C1CC1)N1CCN(c2ccc(-c3cc(-c4cc(F)c5c(=O)[nH]ccc5c4)c(N)nc3F)cc2)CC1` [I-393, (S)-6-(2-amino-5-(4-(4-(1-cyclopropylethyl)piperazin-1-yl)phenyl)-6-fluoropyridin-3-yl)-8-fluoroisoquinolin-1(2H)-one], the IC50 at Lck (h) (read-out: Lck IC50 nM Range*) is 101 to 1000 nM; in assay [1] (read-out: HPK1 IC50 nM Range*), 0.1 to 10 nM.

In the case of `CC(C)N1CCN(c2ccc(-c3cc(-c4cnc5c(=O)[nH]ccc5c4)c(N)nc3F)cc2)CC1` [I-402, 3-(2-amino-6-fluoro-5-(4-(4-isopropylpiperazin-1-yl)phenyl)pyridin-3-yl)-1,7-naphthyridin-8(7H)-one], the half-inhibitory concentration (IC50) at Lck (h) (read-out: Lck IC50 nM Range*) was more than 1000 nM; in assay [1] (read-out: HPK1 IC50 nM Range*) it was 0.1 to 10 nM.

As for `CC(C)N1CCN(c2ccc(-c3cc(-c4cc(F)c5c(c4)CCNC5=O)c(N)nc3F)cc2F)CC1` [I-386, 6-(2-amino-6-fluoro-5-(3-fluoro-4-(4-isopropylpiperazin-1-yl)phenyl)pyridin-3-yl)-8-fluoro-3,4-dihydroisoquinolin-1(2H)-one], the IC50 (on Lck (h) (read-out: Lck IC50 nM Range*); in assay [1] (read-out: HPK1 IC50 nM Range*)) was 0.1 to 10 nM throughout.

For the molecule `COCCN1CCc2cc(-c3cc(-c4ccc5c(c4)CCNC5=O)c(N)nc3F)ccc2C1` [I-266, 6-(2-amino-6-fluoro-5-(2-(2-methoxyethyl)-1,2,3,4-tetrahydroisoquinolin-6-yl)pyridin-3-yl)-3,4-dihydroisoquinolin-1(2H)-one], the IC50 on Lck (h) (read-out: Lck IC50 nM Range*) is more than 1000 nM; in assay [1] (read-out: HPK1 IC50 nM Range*), 11 to 100 nM.

In the case of `CC(C)N1CCN(c2ccc(-c3cc(-c4ccc5c(=O)[nH]cc(F)c5c4)c(N)nc3F)cc2)CC1` [I-379, 6-(2-amino-6-fluoro-5-(4-(4-isopropylpiperazin-1-yl)phenyl)pyridin-3-yl)-4-fluoroisoquinolin-1(2H)-one], the IC50 at Lck (h) (read-out: Lck IC50 nM Range*) is more than 1000 nM; in assay [1] (read-out: HPK1 IC50 nM Range*) it was 0.1 to 10 nM.

In the case of `Nc1nc(F)c(-c2ccc(OC3CCN(C(=O)CC4CC4)CC3)cc2)cc1-c1ccc2c(c1)CCNC2=O` [I-337, 6-(2-amino-5-(4-((1-(2-cyclopropylacetyl)piperidin-4-yl)oxy)phenyl)-6-fluoropyridin-3-yl)-3,4-dihydroisoquinolin-1(2H)-one], the IC50 at Lck (h) (read-out: Lck IC50 nM Range*) is more than 1000 nM; in assay [1] (read-out: HPK1 IC50 nM Range*), 11 to 100 nM.

Regarding `CC(C)N1CCN(c2ccc(-c3cc(-c4ccc5c(c4)OCCNC5=O)c(N)nc3F)cc2)CC1` [I-358, 8-(2-amino-6-fluoro-5-(4-(4-isopropylpiperazin-1-yl)phenyl)pyridin-3-yl)-3,4-dihydrobenzo[f][1,4]oxazepin-5(2H)-one], the concentration for half-maximal inhibition (IC50) at Lck (h) (read-out: Lck IC50 nM Range*) was more than 1000 nM; in assay [1] (read-out: HPK1 IC50 nM Range*), 0.1 to 10 nM.

As to `Nc1nc(F)c(-c2ccc(N3CCN(CC4CC4)CC3)cc2)cc1-c1ccc2c(=O)[nH]cc(F)c2c1` [I-455, 6-(2-amino-5-(4-(4-(cyclopropylmethyl)piperazin-1-yl)phenyl)-6-fluoropyridin-3-yl)-4-fluoroisoquinolin-1(2H)-one], the IC50 on Lck (h) (read-out: Lck IC50 nM Range*) was more than 1000 nM; in assay [1] (read-out: HPK1 IC50 nM Range*), 0.1 to 10 nM.

As to `COCCN1CCC2(CC1)OCc1cc(-c3cc(-c4ccc5c(c4)CCNC5=O)c(N)nc3F)ccc1O2` [I-214, 6-(2-amino-6-fluoro-5-(1′-(2-methoxyethyl)-4H-spiro[benzo[d][1,3]dioxine-2,4′-piperidin]-6-yl)pyridin-3-yl)-3,4-dihydroisoquinolin-1(2H)-one], the results for the IC50 (at Lck (h) (read-out: Lck IC50 nM Range*); in assay [1] (read-out: HPK1 IC50 nM Range*)) were more than 1000 nM and 0.1 to 10 nM, respectively.

Turning to `CCN1CCCCC1c1ccc(-c2cc(-c3ccc4c(c3)CCNC4=O)c(N)nc2F)cc1` (centres unmarked) [I-100, 6-(2-amino-5-(4-(1-ethylpiperidin-2-yl)phenyl)-6-fluoropyridin-3-yl)-3,4-dihydroisoquinolin-1(2H)-one], the half-inhibitory concentration (IC50) is more than 1000 nM on Lck (h) (read-out: Lck IC50 nM Range*) and 0.1 to 10 nM in assay [1] (read-out: HPK1 IC50 nM Range*).

For the molecule `CC(C)N1CCN(c2ccc(-c3cc(-c4ccc5c(c4)CCNC5=O)c(N)nc3F)c(F)c2F)CC1` [I-345, 6-(2-amino-5-(2,3-difluoro-4-(4-isopropylpiperazin-1-yl)phenyl)-6-fluoropyridin-3-yl)-3,4-dihydroisoquinolin-1(2H)-one], the IC50 at Lck (h) (read-out: Lck IC50 nM Range*) was more than 1000 nM; in assay [1] (read-out: HPK1 IC50 nM Range*), 0.1 to 10 nM.

With `CN(C)Cc1cc(-c2cc(-c3ccc4c(c3)CCNC4=O)c(N)nc2F)ccc1N1CCOCC1` [I-432, 6-(2-amino-5-(3-((dimethylamino)methyl)-4-morpholinophenyl)-6-fluoropyridin-3-yl)-3,4-dihydroisoquinolin-1(2H)-one], the values for the IC50 (at Lck (h) (read-out: Lck IC50 nM Range*); in assay [1] (read-out: HPK1 IC50 nM Range*)) were more than 1000 nM and 0.1 to 10 nM, respectively.

With `CC(C)N1CCC(c2ccc(-c3cc(-c4ccc5c(c4)CCNC5=O)c(N)nc3F)cc2)CC1` [I-79, 6-(2-amino-6-fluoro-5-(4-(1-isopropylpiperidin-4-yl)phenyl)pyridin-3-yl)-3,4-dihydroisoquinolin-1(2H)-one], the results for the IC50 (at Lck (h) (read-out: Lck IC50 nM Range*); in assay [1] (read-out: HPK1 IC50 nM Range*)) were more than 1000 nM and 0.1 to 10 nM, respectively.

For `CO[C@@H]1CCN(c2ccc(-c3cc(-c4ccc5c(c4)CCNC5=O)c(N)nc3F)cc2)C1` [I-114, (R)-6-(2-amino-6-fluoro-5-(4-(3-methoxypyrrolidin-1-yl)phenyl)pyridin-3-yl)-3,4-dihydroisoquinolin-1(2H)-one], the results for the IC50 (at Lck (h) (read-out: Lck IC50 nM Range*); in assay [1] (read-out: HPK1 IC50 nM Range*)) were more than 1000 nM and 11 to 100 nM, respectively.

Regarding `CC(=O)N1CCN(c2ccc(-c3cc(-c4ccc5c(c4)CCNC5=O)c(N)nc3F)cc2C(F)(F)F)CC1` [I-200, 6-(5-(4-(4-acetylpiperazin-1-yl)-3-(trifluoromethyl)phenyl)-2-amino-6-fluoropyridin-3-yl)-3,4-dihydroisoquinolin-1(2H)-one], the figures for the IC50 (at Lck (h) (read-out: Lck IC50 nM Range*); in assay [1] (read-out: HPK1 IC50 nM Range*)) were more than 1000 nM and 0.1 to 10 nM, respectively.

`CN1CCN(c2ccc(-c3cc(-c4ccc5c(c4)CCNC5=O)c(N)nc3F)c(Cl)c2)CC1` [I-61, 6-(2-amino-5-(2-chloro-4-(4-methylpiperazin-1-yl)phenyl)-6-fluoropyridin-3-yl)-3,4-dihydroisoquinolin-1(2H)-one]: the values for the concentration for half-maximal inhibition (IC50) (on Lck (h) (read-out: Lck IC50 nM Range*); in assay [1] (read-out: HPK1 IC50 nM Range*)) were more than 1000 nM and 0.1 to 10 nM, respectively.

As to `CC(=O)N1CCC2(CC1)OCc1cc(-c3cc(-c4ccc5c(c4)CCNC5=O)c(N)nc3F)ccc1O2` [I-191, 6-(5-(1′-acetyl-4H-spiro[benzo[d][1,3]dioxine-2,4′-piperidin]-6-yl)-2-amino-6-fluoropyridin-3-yl)-3,4-dihydroisoquinolin-1(2H)-one], the half-maximal inhibitory concentration (IC50) at Lck (h) was more than 1000 nM; in assay [1], 0.1 to 10 nM.

On to `Nc1nc(F)c(-c2ccc([C@@]34C[C@@H]3CN(C3COC3)C4)cc2)cc1-c1ccc2c(c1)CCNC2=O` [I-156, 6-(2-amino-6-fluoro-5-(4-((1R,5S)-3-(oxetan-3-yl)-3-azabicyclo[3.1.0]hexan-1-yl)phenyl)pyridin-3-yl)-3,4-dihydroisoquinolin-1(2H)-one], for which the concentration for half-maximal inhibition (IC50) was more than 1000 nM at Lck (h) (read-out: Lck IC50 nM Range*) and 0.1 to 10 nM in assay [1] (read-out: HPK1 IC50 nM Range*).

With `CN(C)C1CCN(c2ccc(-c3cc(-c4ccc5c(c4)CCNC5=O)c(N)nc3F)cc2)C1` (centres unmarked) [I-157, 6-(2-amino-5-(4-(3-(dimethylamino)pyrrolidin-1-yl)phenyl)-6-fluoropyridin-3-yl)-3,4-dihydroisoquinolin-1(2H)-one], the figures for the concentration for half-maximal inhibition (IC50) (at Lck (h) (read-out: Lck IC50 nM Range*); in assay [1] (read-out: HPK1 IC50 nM Range*)) were more than 1000 nM and 0.1 to 10 nM, respectively.

Consider `COCCN1C[C@@H]2C[C@]2(c2ccc(-c3cc(-c4ccc5c(c4)CCNC5=O)c(N)nc3F)cc2)C1` [I-165, 6-(2-amino-6-fluoro-5-(4-((1S,5R)-3-(2-methoxyethyl)-3-azabicyclo[3.1.0]hexan-1-yl)phenyl)pyridin-3-yl)-3,4-dihydroisoquinolin-1(2H)-one], for which the IC50 was more than 1000 nM at Lck (h) (read-out: Lck IC50 nM Range*) and 0.1 to 10 nM in assay [1] (read-out: HPK1 IC50 nM Range*).

In the case of `CC(C)(C)OC(=O)N1CC=C(c2ccc(-c3cc(-c4ccc5c(c4)CCNC5=O)c(N)nc3F)cc2)CC1` [I-56, tert-butyl4-(4-(6-amino-2-fluoro-5-(1-oxo-1,2,3,4-tetrahydroisoquinolin-6-yl)pyridin-3-yl)phenyl)-3,6-dihydropyridine-1(2H)-carboxylate], the half-maximal inhibitory concentration (IC50) at Lck (h) (read-out: Lck IC50 nM Range*) was more than 1000 nM; in assay [1] (read-out: HPK1 IC50 nM Range*), 11 to 100 nM.
